Like-named read-outs stand apart in the source and are kept apart here.
How the values were obtained:
[1] = target: T1, catalytic domain of the recombinant TACE protein (Homo sapiens, UniProt P78536); assay: TACE FRET assay using TACE cat; assay type: biochemical
T1 construct: The catalytic domain of the recombinant TACE protein was expressed and purified; made in house
Summary of the method: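 Initial fluorescence rate of Abz-[sequence]-Dpa pro-TNF-α peptide cleavage (substrate from 2 mM stock) read after adding substrate to enzyme (1 ug/ml) preincubated 10 min, room temperature, with inhibitor.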

[2] = target: T2, recombinant human catalytic domain of MMP-1 (Homo sapiens, UniProt P03956); assay: In-vitro fluorescence (FRET) assay of MMP-1 activity; assay type: biochemical
T2 construct: the recombinant human catalytic domain of MMP-1
T2 sequence (P03956 100-269 limits assumed): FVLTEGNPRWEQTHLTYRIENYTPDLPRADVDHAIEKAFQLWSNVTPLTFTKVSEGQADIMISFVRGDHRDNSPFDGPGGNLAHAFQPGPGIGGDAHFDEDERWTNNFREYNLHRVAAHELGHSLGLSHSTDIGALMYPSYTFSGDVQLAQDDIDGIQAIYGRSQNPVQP
Text: In-Vitro Fluorescence Assay of MMP-1 Activity
(§1) A continuous assay was used in which the substrate is a synthetic peptide containing a fluorescent group (7-methoxycoumarin; Mca) that is quenched by energy transfer to a 2,4-dinitrophenyl group. See Knight, C. G. et al., FEBS Lett. (1992) 296: 263-266, incorporated herein by reference in its entirety. When the peptide was cleaved by MMP, a large increase in fluorescence was observed. The source of enzyme in the assay was the recombinant human catalytic domain of MMP-1. See Zhang, Y et al., Journal of Pharmacology and Experimental Therapeutics (JPET) (2004) 309:348-355, incorporated by reference in its entirety. The substrate used was Mca-PQGL-(3-[2,4-dinitrophenyl]-L-2,3-diaminopropionyl)-AR-OH (denoted as Wammp-5, custom synthesized by AnaSpec, Inc., San Jose, Calif.). The assay buffer consisted of 50 mM Hepes (pH 7.4), 100 mM NaCl, 5 mM CaCl2, and 0.005% Brij-35. Each well of black polystyrene 96-well plates contained a 200 μl reaction mixture consisting of assay buffer, purified MMP (final concentration of 25 ng/ml, prepared by diluting with the assay buffer), and varied concentrations of inhibitor (prepared by serially diluting a given inhibitor in DMSO in 96-well polypropylene plate). The plates were then incubated at 30° C. for 15 minutes. The enzymatic reactions were initiated by adding the substrate to a final concentration of 20 μM, and mixing 10 times with a pipette. The final DMSO concentration in the assay was 6.0%. The initial rate of the cleavage reaction was determined at 30° C. with a fluorescence plate reader (excitation filter of 330 nm and emission filter of 395 nm) immediately after substrate addition.
(§2) Plots of the inhibitor concentration versus the percent inhibition were fit to the following equation: y=(a−d)/[1+(x/c)^b]+d, a general sigmoidal curve with Hill slope, a to d. x is the inhibitor concentration under test. “y” is the percent inhibition. “a” is the limiting response as x approaches zero. As x increases without bound, y tends toward its limit d. “c” is the inflection point (IC50) for the curve. That is, y is halfway between the lower and upper asymptotes when x=c. “b” is the slope factor or Hill coefficient.

[3] = target: T3, recombinant human catalytic domain of MMP-13 (Homo sapiens, UniProt P45452); assay: biochemical
T3 construct: catalytic domain of MMP-13 (165 amino acids, residues 104-268, 19 kDa)
Text: as §1, with “When the peptide was cleaved by MMP, a large increase in fluorescence was observed. The source of enzyme in the assay was the recombinant human catalytic domain of MMP-1.” left out
as §2
In-Vitro Fluorescence Assay of MMP-13 Activity
See Zhang, Y et al., Journal of Pharmacology and Experimental Therapeutics (JPET) (2004) 309:348-355, incorporated by reference in its entirety.

[4] = target: T4, recombinant human catalytic domain of MMP-14 (Homo sapiens, UniProt P50281); assay: biochemical
T4 construct: 177 amino acids corresponding to Tyr89-Gly265 of mature human enzyme; 20 kDa; purchased Chemicon International, Inc. CC1041
Text: as §1, with “When the peptide was cleaved by MMP, a large increase in fluorescence was observed. The source of enzyme in the assay was the recombinant human catalytic domain of MMP-1.” left out
as §2
In-Vitro Fluorescence Assay of MMP-14 Activity

recombinant human MMP-2 = target: T5, recombinant human MMP-2 (Homo sapiens, UniProt P08253); assay: In-vitro fluorescence (FRET) assay of MMP-2 activity; assay type: biochemical
T5 construct: purchased Oncogene Research Products (Calbiochem) PF023
Text: as §1, with “When the peptide was cleaved by MMP, a large increase in fluorescence was observed. The source of enzyme in the assay was the recombinant human catalytic domain of MMP-1.” left out
as §2
In-Vitro Fluorescence Assay of MMP-2 Activity

[5] = test system: TNF-α Secretion in Raw Cells (Raw 264.7 cells); assay: Cell-based assay for inhibition of TNF-α secretion in Raw cells; conditions: read-out: TNF-α Secretion in Raw Cells IC50
Protocol: Cell-Based Assay for Inhibition of TNF-A Secretion in Raw Cells
(§3) The basic measurement of the assay is the percentage of inhibition of TNF-α secretion and the IC50 determination by a fitting with the model-39 of LSW data analysis tool.
Raw 264.7 cells (ATCC Cat No. TIB-71) are maintained in DMEM medium containing 10% of serum, P/S, and Glutamine. […] For testing compounds, cells are cultured to confluence and are seeded the day before the experiment in 24 well culture dishes at 0.5 to 1 million/ml/well. On the next morning, the medium from the overnight culture is replaced with the fresh growth medium. The compounds are added at various concentrations at the 0.2% of final DMSO concentrations (10 μl of a 20% DMSO solution containing testing compounds is added to each well). The cells are pre-incubated with compounds for 1 hour. LPS (Sigma, L2262) is added to cells at a final concentration of 100 ng/ml (10 μl of a […] LPS solution freshly diluted from a 1 mg/ml LPS stock solution in PBS is added to each well) and cells are further incubated for 4 hours at 37° C. One milliliter (1 ml) of the supernatant was collected, cells are spun down and the supernatants are frozen at −80° C. until use.
The TNF-α and other proinflammatory cytokines were detected by ELISA assay according to the manufacturer's instruction (Biosource International, Inc., Camarillo, Calif.) (For IL-1b measurement in Raw cells, one round of freeze and thaw of the cells was required.)

[6] = test system: TNF-α Secretion in Human Whole Blood; assay: Human whole blood assay for LPS-induced TNF-α secretion; assay type: cell-based; conditions: fresh human blood, LPS 100 ng/ml, TNF-α by ELISA
Text: as §3

[7] = TACE FRET assay, catalytic domain of recombinant TACE, read-out: TACE IC50
[8] = Raw 264.7 cells, LPS 100 ng/ml, 4 hours, TNF-α by ELISA

T1 sequence (P78536 223-474 limits assumed): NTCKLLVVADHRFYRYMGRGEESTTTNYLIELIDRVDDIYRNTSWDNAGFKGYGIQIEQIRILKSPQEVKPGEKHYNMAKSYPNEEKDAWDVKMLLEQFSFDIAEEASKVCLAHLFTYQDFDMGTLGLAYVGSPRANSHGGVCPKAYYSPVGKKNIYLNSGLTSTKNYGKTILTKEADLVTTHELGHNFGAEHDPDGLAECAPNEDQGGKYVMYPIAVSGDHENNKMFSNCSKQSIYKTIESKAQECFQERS
T5 sequence (P08253 110-660): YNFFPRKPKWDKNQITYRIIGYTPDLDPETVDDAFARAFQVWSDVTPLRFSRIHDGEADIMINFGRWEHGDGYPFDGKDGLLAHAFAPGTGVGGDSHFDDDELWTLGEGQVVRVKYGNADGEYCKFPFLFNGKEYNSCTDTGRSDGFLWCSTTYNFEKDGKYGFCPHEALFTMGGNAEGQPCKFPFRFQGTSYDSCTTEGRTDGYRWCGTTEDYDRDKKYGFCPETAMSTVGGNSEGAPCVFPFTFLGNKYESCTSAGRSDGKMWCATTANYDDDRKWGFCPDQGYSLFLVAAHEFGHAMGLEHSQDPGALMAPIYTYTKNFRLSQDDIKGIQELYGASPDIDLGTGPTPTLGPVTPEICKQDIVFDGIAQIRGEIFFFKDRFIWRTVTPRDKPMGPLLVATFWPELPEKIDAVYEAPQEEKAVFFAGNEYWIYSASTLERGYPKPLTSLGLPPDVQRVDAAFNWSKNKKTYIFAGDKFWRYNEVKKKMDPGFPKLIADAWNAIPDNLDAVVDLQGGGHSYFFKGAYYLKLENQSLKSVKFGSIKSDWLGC

SMILES | IC50 [4] | IC50 (recombinant human MMP-2) | IC50 [1, 7] | IC50 ([5]; Mus musculus, RAW264.7, 4 h) | IC50 [3] | also measured
CC#CCOc1ccc(S(=O)(=O)NC(Cc2c[nH]c3ccc(OC)cc23)C(=O)O)cc1 (racemic) [Example 4, N-{[4-(but-2-ynyloxy)phenyl]sulfonyl}-5-methoxytryptophan] | 22.7 µM | 7.84 µM |  |  |  | IC50 [1]: 0.36 µM; inhibition at 1000 µM ([2]; read-out: MMP-1 Inhibition): 33%; inhibition at 15 µM ([3]; read-out: MMP-13 Inhibition): 50%
CC#CCOc1ccc(S(=O)(=O)N[C@H](Cc2cn(Cc3ccc(OC)cc3)c3ccccc23)C(=O)O)cc1 [Example 35, N-{[4-(but-2-ynyloxy)phenyl]sulfonyl}-1-(4-methoxybenzyl)-D-tryptophan] | 13 µM |  | 0.08 µM | > 60 µM |  | inhibition at 33 µM ([2]; read-out: MMP-1 Inhibition): 14%
CC#CCOc1ccc(S(=O)(=O)NC(Cc2cn(Cc3ccc(OC)cc3)c3ccc(C)cc23)C(=O)O)cc1 (stereo not drawn) [Example 47, N-{[4-(but-2-ynyloxy)phenyl]sulfonyl}-1-(4-methoxybenzyl)-5-methyltryptophan] | 11.6 µM | 0.66 µM |  |  |  | inhibition at 67 µM ([2]; read-out: MMP-1 Inhibition): 30%
CC#CCOc1ccc(S(=O)(=O)N[C@@H](Cc2c[nH]c3ccc(OCc4ccccc4)cc23)C(=O)O)cc1 [Example 224, 5-(benzyloxy)-N-{[4-(but-2-ynyloxy)phenyl]sulfonyl}-L(or D)-tryptophan] | 19.7 µM | 2.45 µM |  |  | 4.44 µM | MMP-1 Inhibition ([2]; Conc. 83 μM): 19%
CC#CCOc1ccc(S(=O)(=O)N[C@@H](Cc2c[nH]c3ccc(C)cc23)C(=O)O)cc1 [Example 218, N-{[4-(but-2-ynyloxy)phenyl]sulfonyl}-5-methyl-L(or D)-tryptophan] | 6.82 µM | 0.27 µM | 0.14 µM |  | 1.81 µM | IC50 [6]: > 50 µM; IC50 [5, 8]: 7.11 µM; MMP-1 Inhibition ([2]; Conc. 160 μM): 30%
CC#CCOc1ccc(S(=O)(=O)N[C@H](Cc2cn(CCCCOc3ccccc3)c3ccccc23)C(=O)O)cc1 [Example 24, N-{[4-(but-2-ynyloxy)phenyl]sulfonyl}-1-(4-phenoxybutyl)-D-tryptophan] |  |  | 1.25 µM | > 60 µM |  | 
CC#CCOc1ccc(S(=O)(=O)N[C@H](Cc2cn(Cc3ccccc3-c3ccccc3)c3ccccc23)C(=O)O)cc1 [Example 27, 1-(1,1′-biphenyl-2-ylmethyl)-N-{[4-(but-2-ynyloxy)phenyl]sulfonyl}-D-tryptophan] |  |  | 0.97 µM | > 60 µM |  | 
CC#CCOc1ccc(S(=O)(=O)N[C@@H](Cc2c[nH]c3ccc(OC)cc23)C(=O)O)cc1 [Example 221, N-{[4-(but-2-ynyloxy)phenyl]sulfonyl}-5-methoxy-D(or L)-tryptophan] | 20.7 µM | 1.27 µM | 0.14 µM |  | 13.6 µM | IC50 [5, 8]: 57 µM; MMP-1 Inhibition ([2]; Conc. 83 μM): 9%

Reference: patent US7576222B2, “Alkynyl-containing tryptophan derivative inhibitors of TACE/matrix metalloproteinase” (priority 2004, dated 2009)
